Test results reported in publication PMC11198769, “Enhancement of transcription efficiency by TAR-Tat system increases the functional expression of human olfactory receptors” (PLOS ONE, 2024).

How the values were obtained:
Assay in all cases: Comprehensive analysis (screening) of hORs against n-hexanal
Assay type in all cases: cell-based
OR10C1 = biological target: T1, OR10C1 (Homo sapiens, UniProt Q96KK4); conditions: OR10C1, 500 μM n-hexanal, with the TAR-Tat system (hOR/pHEK), n = 1
T1 construct: Lucy tag (N); expressed in transfected cells; host or cells: Flp-In T-REx-293 cells stably expressing RTP1S, Gαolf and Ric8-b
T1 sequence (Q96KK4 1-312): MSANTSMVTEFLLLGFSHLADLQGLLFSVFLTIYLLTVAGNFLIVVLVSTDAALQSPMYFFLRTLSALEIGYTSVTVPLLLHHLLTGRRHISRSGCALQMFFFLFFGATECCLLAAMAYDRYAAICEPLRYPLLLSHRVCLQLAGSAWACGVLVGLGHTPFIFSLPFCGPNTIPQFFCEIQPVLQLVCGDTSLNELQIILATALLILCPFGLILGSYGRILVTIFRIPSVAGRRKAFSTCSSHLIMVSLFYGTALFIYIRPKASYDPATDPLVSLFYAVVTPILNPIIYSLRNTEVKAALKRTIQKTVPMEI

OR10H3 = biological target: T2, OR10H3 (Homo sapiens, UniProt O60404); conditions: OR10H3, 500 μM n-hexanal, with the TAR-Tat system (hOR/pHEK), n = 1
T2 construct: Lucy tag (N); expressed in transfected cells; host or cells: Flp-In T-REx-293 cells stably expressing RTP1S, Gαolf and Ric8-b
T2 sequence (O60404 1-316): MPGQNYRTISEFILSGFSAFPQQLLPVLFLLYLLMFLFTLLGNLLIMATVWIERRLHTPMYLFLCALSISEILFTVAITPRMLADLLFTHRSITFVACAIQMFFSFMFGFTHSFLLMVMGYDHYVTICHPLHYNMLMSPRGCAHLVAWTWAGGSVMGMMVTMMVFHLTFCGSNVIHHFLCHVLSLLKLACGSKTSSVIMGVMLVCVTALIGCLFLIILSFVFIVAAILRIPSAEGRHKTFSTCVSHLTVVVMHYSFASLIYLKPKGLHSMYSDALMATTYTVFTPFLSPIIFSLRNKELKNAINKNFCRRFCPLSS

OR1A1 = biological target: T3, OR1A1 (Homo sapiens, UniProt Q9P1Q5); conditions: OR1A1, 500 μM n-hexanal, n = 1
T3 construct: Lucy tag (N); FLAG (N); Rho tag (N); expressed in transfected cells; host or cells: Flp-In T-REx-293 cells stably expressing RTP1S, Gαolf and Ric8-b
T3 sequence (Q9P1Q5 1-309): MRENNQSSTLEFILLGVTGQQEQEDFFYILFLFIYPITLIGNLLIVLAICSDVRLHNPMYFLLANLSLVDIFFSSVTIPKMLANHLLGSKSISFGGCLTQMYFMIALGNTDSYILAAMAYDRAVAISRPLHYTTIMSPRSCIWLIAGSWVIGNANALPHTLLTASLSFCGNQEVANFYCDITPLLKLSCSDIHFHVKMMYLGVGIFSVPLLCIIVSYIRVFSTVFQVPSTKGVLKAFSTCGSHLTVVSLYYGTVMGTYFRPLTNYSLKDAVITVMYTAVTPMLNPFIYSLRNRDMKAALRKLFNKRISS

OR5P3 = biological target: T4, OR5P3 (Homo sapiens, UniProt Q8WZ94); conditions: OR5P3, 500 μM n-hexanal, n = 1
T4 construct: Lucy tag (N); FLAG (N); Rho tag (N); expressed in transfected cells; host or cells: Flp-In T-REx-293 cells stably expressing RTP1S, Gαolf and Ric8-b
T4 sequence (Q8WZ94 1-311): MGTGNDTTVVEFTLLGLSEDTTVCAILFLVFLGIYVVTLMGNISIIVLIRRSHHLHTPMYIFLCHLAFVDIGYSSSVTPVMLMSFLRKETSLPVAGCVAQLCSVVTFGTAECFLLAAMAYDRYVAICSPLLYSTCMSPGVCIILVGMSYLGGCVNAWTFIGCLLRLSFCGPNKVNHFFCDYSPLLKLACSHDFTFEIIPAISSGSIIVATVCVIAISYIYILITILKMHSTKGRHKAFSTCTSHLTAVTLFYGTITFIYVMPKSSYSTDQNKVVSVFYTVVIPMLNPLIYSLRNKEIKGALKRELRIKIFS

OR8B3 = biological target: T5, OR8B3 (Homo sapiens, UniProt Q8NGG8); conditions: OR8B3, 500 μM n-hexanal, with the TAR-Tat system (hOR/pHEK), n = 1
T5 construct: Lucy tag (N); FLAG (N); Rho tag (N); expressed in transfected cells; host or cells: Flp-In T-REx-293 cells stably expressing RTP1S, Gαolf and Ric8-b
T5 sequence (Q8NGG8 1-313): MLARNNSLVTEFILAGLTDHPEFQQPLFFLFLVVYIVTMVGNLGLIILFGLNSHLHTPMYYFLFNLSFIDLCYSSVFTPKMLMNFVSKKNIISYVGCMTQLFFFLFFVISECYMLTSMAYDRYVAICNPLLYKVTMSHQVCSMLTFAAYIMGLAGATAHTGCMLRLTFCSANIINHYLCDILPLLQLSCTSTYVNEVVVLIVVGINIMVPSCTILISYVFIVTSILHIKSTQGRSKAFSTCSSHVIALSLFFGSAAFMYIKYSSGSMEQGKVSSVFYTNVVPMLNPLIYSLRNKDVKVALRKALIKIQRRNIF

[1] = with the TAR-Tat system (hOR/pHEK)
[2] = without the TAR-Tat system (control plasmid)

What does the source list for `CCCCCC=O` [n-hexanal]?
response value (ΔL) (OR10C1): > 500; response value (ΔL) (OR10H3): > 500; response value (ΔL) (OR1A1; [1]): 6675; response value (ΔL) (OR1A1; [2]): 974; response value (ΔL) (OR5P3; [1]): 2931; response value (ΔL) (OR5P3; [2]): 740; response value (ΔL) (OR8B3): > 500
